# Assay results published in US8030354B2, “Substituted biphenyl GPR40 modulators” (Amgen Inc., priority 2007, dated 2011).
# Target: GPR40 (Homo sapiens, UniProt O14842)
# Experiment: Cell-based aequorin assay (CHO cells stably expressing GPR40 and aequorin)
# Set-up: expressed in transfected cells; host or cells: CHO cells stably transfected with GPR40 and aequorin
# Settings: activation of human GPR40, CHO cells, 0.01% HSA
# Method: Briefly, the Aequorin assays were performed on doubly stable CHO cells expressing GPR40 and Aequorin DNA. […] The luminescence was recorded over a period of 20 seconds with a Microlumat luminometer (Berthold). […] The inositol phosphate assay was performed on an A9 cell line stably transfected with GPR40 (A9_GPR40). The cells were incubated with different concentrations of compounds and [^3H] inositol accumulation was measured after 1 hour.
# Cell-based aequorin assays were employed to characterize the modulatory activity of compounds on the GPR40 signaling pathway. In an exemplary assay, CHO cells were stably transfected with both GPR40 and Aequorin (Euroscreen). Cells were detached from the tissue culture dish with 2 mL of trypsin (0.25%(w/v)). Trypsinization was halted with 28 mL of Hanks Buffered Salt Solution containing 20 mM Hepes (H/HBSS) and 0.01% fatty acid-free human serum albumin (HSA). Coelantrazine is added to 1 ug/mL, and the cells were incubated for 2 hours at room temperature. Compounds were dissolved in DMSO for preparation of 10 mM stock solutions. Compounds were diluted in H/HBSS containing 0.01% HSA. Serial dilutions of the test compounds were prepared to determine dose response.
# Aequorin luminescence measurements were made using an EG&G Berthold 96-well luminometer, and the response was measured over a 20 second interval after cells and compounds were mixed. The maximum relative light units was plotted to determine dose response. The EC50 (effective concentration to reach 50% maximal response) was determined from the dose response plot.
# Sequence of GPR40 (O14842 whole entry): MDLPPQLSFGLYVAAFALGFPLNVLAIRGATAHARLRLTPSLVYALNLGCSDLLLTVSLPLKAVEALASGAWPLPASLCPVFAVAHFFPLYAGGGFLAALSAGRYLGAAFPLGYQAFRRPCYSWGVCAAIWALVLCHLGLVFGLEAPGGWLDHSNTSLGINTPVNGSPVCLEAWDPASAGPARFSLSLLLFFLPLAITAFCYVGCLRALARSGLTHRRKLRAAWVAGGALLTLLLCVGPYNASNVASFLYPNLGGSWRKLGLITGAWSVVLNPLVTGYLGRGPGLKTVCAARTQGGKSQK
row,Compound,EC50 [nM]
1,"COc1ccc(F)c(-c2ccc(COc3cccc([C@H](C)CC(=O)O)c3)cc2OCc2ccccc2)c1 (single isomer, unassigned) [Example 30, (3R)-3-(3-(((2′-Fluoro-5′-(methyloxy)-2-((phenylmethyl)oxy)-1,1′-biphenyl-4-yl)methyl)oxy)phenyl)butanoic acid or (3S)-3-(3-(((2′-fluoro-5′-(methyloxy)-2-((phenylmethyl)oxy)-1,1′-biphenyl-4-yl)methyl)oxy)phenyl)butanoic acid]",1000 to 10000
2,"C=C(C)[C@@H](CC(=O)O)c1cccc(OCc2ccc(-c3cc(OC)ccc3F)c(C(C)(C)C)c2)c1 (single isomer, unassigned) [Example 48, (3R)-3-(3-(((2-(1,1-Dimethylethyl)-2′-fluoro-5′-(methyloxy)-1,1′-biphenyl-4-yl)methyl)oxy)phenyl)-4-methyl-4-pentenoic acid or (3S)-3-(3-(((2-(1,1-dimethylethyl)-2′-fluoro-5′-(methyloxy)-1,1′-biphenyl-4-yl)methyl)oxy)phenyl)-4-methyl-4-pentenoic acid]",1000 to 10000
3,"COc1ccc(F)c(-c2ccc(COc3cccc([C@@H](CC(=O)O)C(C)C)c3)cc2C(C)(C)C)c1 (single isomer, unassigned) [Example 52]",1000 to 10000
4,"CCCCOc1cc(COc2cccc([C@@H](CC(=O)O)C(C)C)c2)ccc1-c1cc(OC)ccc1F (single isomer, unassigned) [Example 53]",1000 to 10000
5,"C=CC[C@H](CC(=O)O)c1cccc(OCc2ccc(-c3cc(OC)ccc3F)c(OCCCC)c2)c1 (single isomer, unassigned) [Example 54, (3R)-3-(3-(((2-(Butyloxy)-2′-fluoro-5′-(methyloxy)-1,1′-biphenyl-4-yl)methyl)oxy)phenyl)-5-hexenoic acid or (3S)-3-(3-(((2-(butyloxy)-2′-fluoro-5′-(methyloxy)-1,1′-biphenyl-4-yl)methyl)oxy)phenyl)-5-hexenoic acid]",1000 to 10000
6,"COc1cccc(-c2ccc(COc3cccc([C@@H](CC(=O)O)C(C)C)c3)cc2C(C)(C)C)c1 (single isomer, unassigned) [Example 58, (3S)-3-(3-(((2-(1,1-Dimethylethyl)-3′-(methyloxy)-1,1′-biphenyl-4-yl)methyl)oxy)phenyl)-4-methylpentanoic acid or (3R)-3-(3-(((2-(1,1-dimethylethyl)-3′-(methyloxy)-1,1′-biphenyl-4-yl)methyl)oxy)phenyl)-4-methylpentanoic acid]",1000 to 10000
7,"COc1ccc(F)c(-c2ccc(COc3cccc(C[C@H](C)C(=O)O)c3)cc2C2=CCCC2(C)C)c1 (single isomer, unassigned) [Example 63.1, (2S)-3-(3-(((2-(5,5-Dimethyl-1-cyclopenten-1-yl)-2′-fluoro-5′-(methyloxy)-1,1′-biphenyl-4-yl)methyl)oxy)phenyl)-2-methylpropanoic acid or (2R)-3-(3-(((2-(5,5-dimethyl-1-cyclopenten-1-yl)-2′-fluoro-5′-(methyloxy)-1,1′-biphenyl-4-yl)methyl)oxy)phenyl)-2-methylpropanoic acid]",100 to 1000
8,"CCCCOc1cc(COc2cccc(C(C)CC(=O)O)c2)ccc1-c1cccc(SC)c1 (single isomer, unassigned) [Example 64.2, (3R)-3-(3-(((2-(Butyloxy)-3′-(methylsulfanyl)-1,1′-biphenyl-4-yl)methyl)oxy)phenyl)butanoic acid or (3S)-3-(3-(((2-(butyloxy)-3′-(methylsulfanyl)-1,1′-biphenyl-4-yl)methyl)oxy)phenyl)butanoic acid]",1000 to 10000
9,"COc1ccc(F)c(-c2cc(C)c(COc3cccc(C(C)CC(=O)O)c3)cc2C(C)(C)C)c1 (single isomer, unassigned) [Example 64.3, (3R)-3-(3-(((2-(1,1-Dimethylethyl)-2′-fluoro-5-methyl-5′-(methyloxy)-1,1′-biphenyl-4-yl)methyl)oxy)phenyl)butanoic acid or (3S)-3-(3-(((2-(1,1-dimethylethyl)-2′-fluoro-5-methyl-5′-(methyloxy)-1,1′-biphenyl-4-yl)methyl)oxy)phenyl)butanoic acid]",1000 to 10000
10,"CCC/C=C/c1cc(COc2cccc(C(C)CC(=O)O)c2)ccc1-c1cc(OC)ccc1F (single isomer, unassigned) [Example 64.8, (3R)-3-(3-(((2′-Fluoro-5′-(methyloxy)-2-((1E)-1-pentenyl)-1,1′-biphenyl-4-yl)methyl)oxy)phenyl)butanoic acid or (3S)-3-(3-(((2′-fluoro-5′-(methyloxy)-2-((1E)-1-pentenyl)-1,1′-biphenyl-4-yl)methyl)oxy)phenyl)butanoic acid]",100 to 1000
11,"COc1ccc(F)c(-c2ccc(COc3cccc(C(C)CC(=O)O)c3)cc2/C=C/C2CCCCC2)c1 (single isomer, unassigned) [Example 64.9, (3R)-3-(3-(((2-((E)-2-Cyclohexylethenyl)-2′-fluoro-5′-(methyloxy)-1,1′-biphenyl-4-yl)methyl)oxy)phenyl)butanoic acid or (3S)-3-(3-(((2-((E)-2-cyclohexylethenyl)-2′-fluoro-5′-(methyloxy)-1,1′-biphenyl-4-yl)methyl)oxy)phenyl)butanoic acid]",100 to 1000

# Other lines, results leading:
row,EC50 [nM],Compound
1,100 to 1000,"COc1ccc(F)c(-c2ccc(COc3cccc([C@H](C)CC(=O)O)c3)cc2OCC(C)C)c1 (single isomer, unassigned) [Example 29, (3R)-3-(3-(((2′-Fluoro-5′-(methyloxy)-2-((2-methylpropyl)oxy)-1,1′-biphenyl-4-yl)methyl)oxy)phenyl)butanoic acid or (3S)-3-(3-(((2′-fluoro-5′-(methyloxy)-2-((2-methylpropyl)oxy)-1,1′-biphenyl-4-yl)methyl)oxy)phenyl)butanoic acid]"
2,100 to 1000,"COc1ccc(F)c(-c2ccc(COc3cccc([C@H](C)CC(=O)O)c3)cc2OC(C)C)c1 (single isomer, unassigned) [Example 31, (3R)-3-(3-(((2′-Fluoro-2-((1-methylethyl)oxy)-5′-(methyloxy)-1,1′-biphenyl-4-yl)methyl)oxy)phenyl)butanoic acid or (3S)-3-(3-(((2′-fluoro-2-((1-methylethyl)oxy)-5′-(methyloxy)-1,1′-biphenyl-4-yl)methyl)oxy)phenyl)butanoic acid]"
3,100 to 1000,"COc1ccc(F)c(-c2ccc(COc3cccc([C@H](C)CC(=O)O)c3)cc2OC2CCCC2)c1 (single isomer, unassigned) [Example 32, (3R)-3-(3-(((2-(Cyclopentyloxy)-2′-fluoro-5′-(methyloxy)-1,1′-biphenyl-4-yl)methyl)oxy)phenyl)butanoic acid or (3S)-3-(3-(((2-(cyclopentyloxy)-2′-fluoro-5′-(methyloxy)-1,1′-biphenyl-4-yl)methyl)oxy)phenyl)butanoic acid]"
4,100 to 1000,"COc1ccc(F)c(-c2ccc(COc3cccc(CC(C)C(=O)O)c3)cc2C2=CCCC2(C)C)c1 (single isomer, unassigned) [Example 62.1, (2R)-3-(3-(((2-(5,5-Dimethyl-1-cyclopenten-1-yl)-2′-fluoro-5′-(methyloxy)-1,1′-biphenyl-4-yl)methyl)oxy)phenyl)-2-methylpropanoic acid or (2S)-3-(3-(((2-(5,5-dimethyl-1-cyclopenten-1-yl)-2′-fluoro-5′-(methyloxy)-1,1′-biphenyl-4-yl)methyl)oxy)phenyl)-2-methylpropanoic acid]"
5,100 to 1000,"COc1ccc(F)c(-c2ccc(COc3cccc(CC(C)C(=O)O)c3)cc2C2CCCC2(C)C)c1 (single isomer, unassigned) [Example 62.2, (2R)-3-(3-(((2-(2,2-Dimethylcyclopentyl)-2′-fluoro-5′-(methyloxy)-1,1′-biphenyl-4-yl)methyl)oxy)phenyl)-2-methylpropanoic acid or (2S)-3-(3-(((2-(2,2-dimethylcyclopentyl)-2′-fluoro-5′-(methyloxy)-1,1′-biphenyl-4-yl)methyl)oxy)phenyl)-2-methylpropanoic acid]"
6,100 to 1000,"COc1ccc(F)c(-c2ccc(COc3cccc(CC(C)C(=O)O)c3)cc2C2CCCC2(C)C)c1 (single isomer, unassigned) [Example 63.2, (2S)-3-(3-(((2-(2,2-Dimethylcyclopentyl)-2′-fluoro-5′-(methyloxy)-1,1′-biphenyl-4-yl)methyl)oxy)phenyl)-2-methylpropanoic acid or (2R)-3-(3-(((2-(2,2-dimethylcyclopentyl)-2′-fluoro-5′-(methyloxy)-1,1′-biphenyl-4-yl)methyl)oxy)phenyl)-2-methylpropanoic acid]"
7,100 to 1000,"COc1ccc(F)c(-c2ccc(COc3cccc(C(C)CC(=O)O)c3)cc2OCC(C)(C)C)c1 (single isomer, unassigned) [Example 64.1, (3R)-3-(3-(((2-((2,2-Dimethylpropyl)oxy)-2′-fluoro-5′-(methyloxy)-1,1′-biphenyl-4-yl)methyl)oxy)phenyl)butanoic acid or (3S)-3-(3-(((2-((2,2-dimethylpropyl)oxy)-2′-fluoro-5′-(methyloxy)-1,1′-biphenyl-4-yl)methyl)oxy)phenyl)butanoic acid]"
